Results as given in patent US10588317B2, “Isoxazoline-substituted benzamides and analogues as insecticides” (priority 2015, dated 2020).

What was measured:
Type in all cases: in vivo
Diabrotica balteata = Diabrotica balteata (corn root worm), sprayed maize sprouts; conditions: 96 h, application rate 200 ppm, L2 larvae, 4 days after infestation, read-out: effect in at least one of the two categories (mortality or growth inhibition)
In short: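 Read-out at 4 days post-infestation: mortality and growth inhibition relative to untreated samples. Test solutions (200 ppm, from DMSO stocks) were sprayed onto agar-held maize sprouts, which after drying received 6–10 L2 larvae per well.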

Euschistus heros = Euschistus heros (neotropical brown stink bug), sprayed soybean leaves; conditions: 120 h, application rate 200 ppm, N2 nymphs, 5 days after infestation, read-out: effect in at least one of the two categories (mortality or growth inhibition)
In short: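 Scored 5 days post-infestation versus untreated controls, for both mortality and growth inhibition: N2 nymphs placed on agar-mounted soybean leaves previously sprayed at 200 ppm with aqueous test solutions from DMSO stocks and left to dry.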

Myzus persicae = Myzus persicae (green peach aphid): feeding/contact activity; conditions: 144 h, application rate 200 ppm, aphid population of mixed ages, 6 days after infestation, read-out: mortality
Description: (§1) Sunflower leaf discs were placed onto agar in a 24-well microtiter plate and sprayed with aqueous test solutions prepared from 10'000 ppm DMSO stock solutions. After drying, the leaf discs were infested with an aphid population of mixed ages. The samples were assessed for mortality 6 days after infestation.

Plutella xylostella = Plutella xylostella (diamond back moth), artificial diet; conditions: 120 h, application rate 200 ppm, L2 larvae, 5 days after infestation, read-out: effect in at least one of the two categories (mortality or growth inhibition)
In short: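 L2 larvae (10-15 per well) fed on compound-treated, dried artificial diet; test solutions diluted in water from 10'000 ppm DMSO stocks. Readout 5 days post-infestation as mortality or growth inhibition versus untreated diet, with at least 80% effect at 200 ppm as threshold.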

Spodoptera littoralis [1] = experiment: Spodoptera littoralis (Egyptian cotton leaf worm), sprayed cotton leaf discs; conditions: foliar, 72 h, application rate 200 ppm, L1 larvae, 3 days after infestation, read-out: control (mortality, anti-feeding effect, growth inhibition)
In short: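 Five first-instar larvae placed on dried cotton leaf discs (on agar) previously sprayed with aqueous dilutions of 10'000 ppm DMSO stocks. Scored at 3 days against untreated discs for mortality, feeding inhibition and growth inhibition; any category above untreated counts as control.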

Spodoptera littoralis [2] = experiment: Spodoptera littoralis (Egyptian cotton leaf worm), uptake by lettuce roots from agar; conditions: 144 h, read-out: effect in at least one of the three categories (mortality, anti-feeding, or growth inhibition); for percent effect (mortality, anti-feeding or growth inhibition) at 12.5 ppm: test rate 12.5 ppm, eggs, 6 days after infestation
In short: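 Systemic test: Spodoptera eggs placed on lettuce leaves from seedlings raised 7 days on agar containing the compound (diluted from 10'000 ppm DMSO stock). Six days after infestation, larvae scored against untreated controls for mortality, feeding deterrence and growth inhibition.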

Tetranychus urticae = Tetranychus urticae (two-spotted spider mite): feeding/contact activity; conditions: 192 h, application rate 200 ppm, mixed population (mobile stages), 8 days after infestation, read-out: mortality
Description: Bean leaf discs on agar in 24-well microtiter plates were sprayed with aqueous test solutions prepared from 10'000 ppm DMSO stock solutions. After drying the leaf discs were infested with a mite population of mixed ages. The samples were assessed for mortality on mixed population (mobile stages) 8 days after infestation.

Thrips tabaci = Thrips tabaci (onion thrips): feeding/contact activity; conditions: 144 h, application rate 200 ppm, Thrips population of mixed ages, 6 days after infestation, read-out: mortality
Description: as §1, with “on” for “onto”, “in” for “in a”, “plates” for “plate”, “drying” for “drying,”, “a Thrips” for “an aphid”

Cc1cc(C2=NO[C@@](c3cc(Cl)c(F)c(Cl)c3)(C(F)(F)F)C2)ccc1C(=O)N[C@H]1CON(S(=O)(=O)N(C)C)C1 (single isomer, unassigned) [Compound A143]
≥ 80%: percent effect (mortality or growth inhibition) at 200 ppm (Diabrotica balteata) | percent effect (mortality or growth inhibition) at 200 ppm (Euschistus heros) | mortality at 200 ppm (Myzus persicae) | percent effect (mortality or growth inhibition) at 200 ppm (Plutella xylostella) | mortality at 200 ppm (Spodoptera littoralis [1]) | percent control (mortality, anti-feedant effect or growth inhibition) at 12.5 ppm (Spodoptera littoralis [2]) | mortality at 200 ppm (Tetranychus urticae) | mortality at 200 ppm (Thrips tabaci)

Cc1cc(C2=NO[C@@](c3cc(Cl)cc(Cl)c3)(C(F)(F)F)C2)ccc1C(=O)NC1CON(S(C)(=O)=O)C1 (stereo partly shown) [Compound A40]
≥ 80%: percent effect (mortality or growth inhibition) at 200 ppm (Diabrotica balteata) | percent effect (mortality or growth inhibition) at 200 ppm (Euschistus heros) | mortality at 200 ppm (Myzus persicae) | percent effect (mortality or growth inhibition) at 200 ppm (Plutella xylostella) | mortality at 200 ppm (Spodoptera littoralis [1]) | percent control (mortality, anti-feedant effect or growth inhibition) at 12.5 ppm (Spodoptera littoralis [2]) | mortality at 200 ppm (Tetranychus urticae) | mortality at 200 ppm (Thrips tabaci)

Cc1cc(C2=NO[C@@](c3cc(Cl)c(Cl)c(Cl)c3)(C(F)(F)F)C2)ccc1C(=O)N[C@@H]1CON(S(=O)(=O)N(C)C)C1 (single isomer, unassigned) [Compound A112]
≥ 80%: percent effect (mortality or growth inhibition) at 200 ppm (Diabrotica balteata) | percent effect (mortality or growth inhibition) at 200 ppm (Euschistus heros) | mortality at 200 ppm (Myzus persicae) | percent effect (mortality or growth inhibition) at 200 ppm (Plutella xylostella) | mortality at 200 ppm (Spodoptera littoralis [1]) | percent control (mortality, anti-feedant effect or growth inhibition) at 12.5 ppm (Spodoptera littoralis [2]) | mortality at 200 ppm (Tetranychus urticae) | mortality at 200 ppm (Thrips tabaci)

Cc1cc(C2=NO[C@@](c3cc(Cl)c(F)c(Cl)c3)(C(F)(F)F)C2)ccc1C(=O)NC1CON(S(=O)(=O)N(C)C(=O)c2cccnc2)C1 (stereo partly shown) [Compound A78]
≥ 80%: percent effect (mortality or growth inhibition) at 200 ppm (Diabrotica balteata) | percent effect (mortality or growth inhibition) at 200 ppm (Euschistus heros) | mortality at 200 ppm (Myzus persicae) | percent effect (mortality or growth inhibition) at 200 ppm (Plutella xylostella) | mortality at 200 ppm (Spodoptera littoralis [1]) | percent effect (mortality, anti-feeding or growth inhibition) at 12.5 ppm (Spodoptera littoralis [2]) | mortality at 200 ppm (Tetranychus urticae) | mortality at 200 ppm (Thrips tabaci)

CCN(C)S(=O)(=O)N1C[C@@H](NC(=O)c2ccc(C3=NO[C@@](c4cc(Cl)cc(C(F)(F)F)c4)(C(F)(F)F)C3)cc2C)CO1 [Compound A141]
≥ 80%: percent effect (mortality or growth inhibition) at 200 ppm (Diabrotica balteata) | percent effect (mortality or growth inhibition) at 200 ppm (Euschistus heros) | mortality at 200 ppm (Myzus persicae) | percent effect (mortality or growth inhibition) at 200 ppm (Plutella xylostella) | mortality at 200 ppm (Spodoptera littoralis [1]) | percent control (mortality, anti-feedant effect or growth inhibition) at 12.5 ppm (Spodoptera littoralis [2]) | mortality at 200 ppm (Tetranychus urticae) | mortality at 200 ppm (Thrips tabaci)

CCS(=O)(=O)N1C[C@@H](NC(=O)c2ccc(C3=NO[C@@](c4cc(Cl)cc(Cl)c4)(C(F)(F)F)C3)cc2Cl)CO1 [Compound A117]
≥ 80%: percent effect (mortality or growth inhibition) at 200 ppm (Diabrotica balteata) | percent effect (mortality or growth inhibition) at 200 ppm (Euschistus heros) | mortality at 200 ppm (Myzus persicae) | percent effect (mortality or growth inhibition) at 200 ppm (Plutella xylostella) | mortality at 200 ppm (Spodoptera littoralis [1]) | percent control (mortality, anti-feedant effect or growth inhibition) at 12.5 ppm (Spodoptera littoralis [2]) | mortality at 200 ppm (Tetranychus urticae) | mortality at 200 ppm (Thrips tabaci)

CCS(=O)(=O)N1CC(NC(=O)c2ccc(C3=NO[C@@](c4cc(Cl)c(Cl)c(Cl)c4)(C(F)(F)F)C3)cc2C)CO1 (stereo partly drawn) [Compound A27, N-(2-ethylsulfonylisoxazolidin-4-yl)-2-methyl-4-[(5S)-5-(3,4,5-trichlorophenyl)-5-(trifluoromethyl)-4H-isoxazol-3-yl]benzamide]
≥ 80%: percent effect (mortality or growth inhibition) at 200 ppm (Diabrotica balteata) | percent effect (mortality or growth inhibition) at 200 ppm (Euschistus heros) | mortality at 200 ppm (Myzus persicae) | percent effect (mortality or growth inhibition) at 200 ppm (Plutella xylostella) | mortality at 200 ppm (Spodoptera littoralis [1]) | percent control (mortality, anti-feedant effect or growth inhibition) at 12.5 ppm (Spodoptera littoralis [2]) | mortality at 200 ppm (Tetranychus urticae) | mortality at 200 ppm (Thrips tabaci)

Cc1cc(C2=NO[C@@](c3cc(Cl)cc(Cl)c3)(C(F)(F)F)C2)ccc1C(=O)N[C@H]1CON(S(=O)(=O)N(C)C)C1 [Compound A39]
≥ 80%: percent effect (mortality or growth inhibition) at 200 ppm (Diabrotica balteata) | percent effect (mortality or growth inhibition) at 200 ppm (Euschistus heros) | mortality at 200 ppm (Myzus persicae) | percent effect (mortality or growth inhibition) at 200 ppm (Plutella xylostella) | mortality at 200 ppm (Spodoptera littoralis [1]) | percent control (mortality, anti-feedant effect or growth inhibition) at 12.5 ppm (Spodoptera littoralis [2]) | mortality at 200 ppm (Tetranychus urticae) | mortality at 200 ppm (Thrips tabaci)

COCCN(C)S(=O)(=O)N1CC(NC(=O)c2ccc(C3=NO[C@@](c4cc(Cl)c(Cl)c(Cl)c4)(C(F)(F)F)C3)cc2C)CO1 (stereo partly drawn) [Compound A90, N-[2-[2-methoxyethyl(methyl)sulfamoyl]isoxazolidin-4-yl]-2-methyl-4-[(5S)-5-(3,4,5-trichlorophenyl)-5-(trifluoromethyl)-4H-isoxazol-3-yl]benzamide]
≥ 80%: percent effect (mortality or growth inhibition) at 200 ppm (Diabrotica balteata) | percent effect (mortality or growth inhibition) at 200 ppm (Euschistus heros) | mortality at 200 ppm (Myzus persicae) | percent effect (mortality or growth inhibition) at 200 ppm (Plutella xylostella) | mortality at 200 ppm (Spodoptera littoralis [1]) | percent control (mortality, anti-feedant effect or growth inhibition) at 12.5 ppm (Spodoptera littoralis [2]) | mortality at 200 ppm (Tetranychus urticae) | mortality at 200 ppm (Thrips tabaci)

Cc1cc(C2=NO[C@@](c3cc(Cl)c(F)c(Cl)c3)(C(F)(F)F)C2)ccc1C(=O)N[C@@H]1CON(S(=O)(=O)N(C)C)C1 (single isomer, unassigned) [Compound A34]
≥ 80%: percent effect (mortality or growth inhibition) at 200 ppm (Diabrotica balteata) | percent effect (mortality or growth inhibition) at 200 ppm (Euschistus heros) | mortality at 200 ppm (Myzus persicae) | percent effect (mortality or growth inhibition) at 200 ppm (Plutella xylostella) | mortality at 200 ppm (Spodoptera littoralis [1]) | percent control (mortality, anti-feedant effect or growth inhibition) at 12.5 ppm (Spodoptera littoralis [2]) | mortality at 200 ppm (Tetranychus urticae) | mortality at 200 ppm (Thrips tabaci)

Cc1cc(C2=NO[C@@](c3cc(Cl)c(F)c(Cl)c3)(C(F)(F)F)C2)ccc1C(=O)NC1CON(S(=O)(=O)CCC(F)(F)F)C1 (stereo partly shown) [Compound A11]
≥ 80%: percent effect (mortality or growth inhibition) at 200 ppm (Diabrotica balteata) | percent effect (mortality or growth inhibition) at 200 ppm (Euschistus heros) | mortality at 200 ppm (Myzus persicae) | percent effect (mortality or growth inhibition) at 200 ppm (Plutella xylostella) | mortality at 200 ppm (Spodoptera littoralis [1]) | percent control (mortality, anti-feedant effect or growth inhibition) at 12.5 ppm (Spodoptera littoralis [2]) | mortality at 200 ppm (Tetranychus urticae) | mortality at 200 ppm (Thrips tabaci)

CS(=O)(=O)N1C[C@@H](NC(=O)c2ccc(C3=NO[C@@](c4cc(Cl)c(F)c(Cl)c4)(C(F)(F)F)C3)cc2Cl)CO1 [Compound A144, 2-chloro-4-[(5S)-5-(3,5-dichloro-4-fluoro-phenyl)-5-(trifluoromethyl)-4H-isoxazol-3-yl]-N-[(4R)-2-methylsulfonylisoxazolidin-4-yl]benzamide]
≥ 80%: percent effect (mortality or growth inhibition) at 200 ppm (Diabrotica balteata) | percent effect (mortality or growth inhibition) at 200 ppm (Euschistus heros) | mortality at 200 ppm (Myzus persicae) | percent effect (mortality or growth inhibition) at 200 ppm (Plutella xylostella) | mortality at 200 ppm (Spodoptera littoralis [1]) | percent control (mortality, anti-feedant effect or growth inhibition) at 12.5 ppm (Spodoptera littoralis [2]) | mortality at 200 ppm (Tetranychus urticae) | mortality at 200 ppm (Thrips tabaci)

Cc1cc(C2=NO[C@@](c3cc(Cl)cc(C(F)(F)F)c3)(C(F)(F)F)C2)ccc1C(=O)NC1CON(S(C)(=O)=O)C1 (stereo partly shown) [Compound A20]
≥ 80%: percent effect (mortality or growth inhibition) at 200 ppm (Diabrotica balteata) | percent effect (mortality or growth inhibition) at 200 ppm (Euschistus heros) | mortality at 200 ppm (Myzus persicae) | percent effect (mortality or growth inhibition) at 200 ppm (Plutella xylostella) | mortality at 200 ppm (Spodoptera littoralis [1]) | percent control (mortality, anti-feedant effect or growth inhibition) at 12.5 ppm (Spodoptera littoralis [2]) | mortality at 200 ppm (Tetranychus urticae) | mortality at 200 ppm (Thrips tabaci)

Cc1cc(C2=NO[C@@](c3cccc(C(F)(F)F)c3)(C(F)(F)F)C2)ccc1C(=O)N[C@H]1CON(S(C)(=O)=O)C1 [Compound A159]
≥ 80%: percent effect (mortality or growth inhibition) at 200 ppm (Diabrotica balteata) | percent effect (mortality or growth inhibition) at 200 ppm (Euschistus heros) | mortality at 200 ppm (Myzus persicae) | percent effect (mortality or growth inhibition) at 200 ppm (Plutella xylostella) | mortality at 200 ppm (Spodoptera littoralis [1]) | percent effect (mortality, anti-feeding or growth inhibition) at 12.5 ppm (Spodoptera littoralis [2]) | mortality at 200 ppm (Tetranychus urticae) | mortality at 200 ppm (Thrips tabaci)
